Literature values in patent publication US20150272891A1, “DOSAGE FORMS COMPRISING APIXABAN AND MATRIX FORMER” (RATIOPHARM GMBH, priority 2012, published 2015).

Settings: compared with N-1 form

## COc1ccc(-n2nc(C(N)=O)c3c2C(=O)N(c2ccc(N4CCCCC4=O)cc2)CC3)cc1 [H2-2 form, 1-(4-methoxyphenyl)-7-oxo-6-[4-(2-oxopiperidin-1-yl)phenyl]-4,5,6,7-tetrahydro-1H-pyrazolo[3,4-c]pyridine-3-carbamide]
  stability of polymorphous form: less stable than the granular, non-solvate N-1 form
